# Reference: PubChem BioAssay (NCI)
#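 Values below derive from 48-hour exposures of cells grown in 96-well plates, with endpoints linearly interpolated between the two concentrations bracketing the appropriate inhibition level. GI50 is the concentration that inhibits growth by half. Definition used: TGI = concentration required for complete inhibition of growth.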
# Legend:
# Assay in all cases: NCI tumour cell line growth inhibition, 48 h
# DLD-1 colon = tested on: DLD-1 colon
# DMS 273 small cell lung = tested on: DMS 273 small cell lung
# M19-MEL melanoma = tested on: M19-MEL melanoma
# XF 498 CNS = tested on: XF 498 CNS
# KM20L2 colon = tested on: KM20L2 colon
# MDA-N = tested on: MDA-N
# SNB-78 CNS = tested on: SNB-78 CNS
# HOP-18 NSCLC = tested on: HOP-18 NSCLC
# RXF-631 renal = tested on: RXF-631 renal
# P388/ADR leukemia = tested on: P388/ADR leukemia
# P388 leukemia = tested on: P388 leukemia
SMILES,TGI (DLD-1 colon) [µM],TGI (DMS 273 small cell lung) [µM],TGI (M19-MEL melanoma) [µM],TGI (XF 498 CNS) [µM],TGI (KM20L2 colon) [µM],GI50 (MDA-N) [µM],TGI (MDA-N) [µM],TGI (SNB-78 CNS) [µM],TGI (HOP-18 NSCLC) [µM],TGI (RXF-631 renal) [µM],TGI (P388/ADR leukemia) [µM],TGI (P388 leukemia) [µM],GI50 (SNB-78 CNS) [µM],GI50 (KM20L2 colon) [µM]
COC1(C)C(=O)N2C1N(C(=O)OCc1ccccc1)CC2(C)C (configuration not stated),> 100,> 100,> 100,> 100,> 100,,,,,,,,,
Nc1cc2cccc[n+]2c2cccc(Cl)c12,,,,,,21.3,61.5,,,,,,,
O=C(CCc1nc(=S)[nH][nH]1)Nc1cccc(C(F)(F)F)c1,> 100,> 100,,> 100,> 100,,,> 100,> 100,,,,,
CC1=NN(C(=O)c2ccc(Cl)cc2)C(=O)/C1=C/c1ccc(Cl)cc1,> 100,,> 100,> 100,> 100,,,> 100,,,,,,
COCCOCOC(C)(C)[C@H](CCOC(C)=O)O[Si](c1ccccc1)(c1ccccc1)C(C)(C)C,> 100,26.3,43.2,,> 100,,,97.4,> 100,43.1,,,,
O=NN(CCCl)C(=O)NC1CCC(=O)NC1=O (configuration not stated),1050,634,972,265,> 1250,,791,864,1070,,399,256,,
Cc1ccc(NC(=O)CC2SC(N)=NC2=O)cc1C (configuration not stated),> 100,,,> 100,> 100,,,> 100,,> 100,,,,
CC1=C(Cl)C[C@@H](/C(C)=C\Cl)O[C@@]1(O)C(Br)Br,,,,,,,41.8,,,,,,,
CN1CCc2c1nc(-c1cccnc1)c1c2N(C)CC1,> 100,> 100,> 100,> 100,> 100,,,> 100,> 100,> 100,,,,
Cc1nc2c(sc(=S)n2-c2ccccc2)c2nc3ccccc3n12,> 100,> 100,> 100,,,,,> 100,> 100,> 100,,,,
COc1ccc(Cc2nc3ccccc3s2)cc1OC,31.7,29.2,29.4,28.8,36.5,,,44.8,62.2,31.7,,,,
NCCC(=O)NC(Cc1cnc[nH]1)C(=O)O (configuration not stated),,,,,,,> 100,,,,,,,
NC(=O)C12CC3CC(CC(Br)(C3)C1)C2,> 100,> 100,,> 100,> 100,,,> 100,> 100,> 100,,,,
COc1cc(/C=C\c2ccncc2)cc(OC)c1OC,> 100,> 100,,> 100,> 100,,,> 100,> 100,> 100,,,,
CC(=O)NNc1nc(C)c(C(=O)/C=C/c2ccc(/C=C/C(=O)c3sc(NNC(C)=O)nc3C)cc2)s1,> 100,> 100,> 100,> 100,,,,> 100,,> 100,,,,
Nc1ccc(C(=O)N/C(=C\c2cccc([N+](=O)[O-])c2)c2nc3ccc(Cl)cc3[nH]2)cc1,> 100,,> 100,> 100,> 100,,,> 100,,> 100,,,,
N.N.N.N.N.O=S(=O)([O-])C(F)(F)F.O=S(=O)([O-])C(F)(F)F.[Os+8],,,,,45.3,,,77.6,,,,,6.19,20.7
COc1cc2c(cc1-c1coc3cc(OCC=C(C)C)ccc3c1=O)OCO2,,,,,,,28.5,,,,,,,
COC/N=C(/N)NC#N,> 100,91.5,> 100,,> 100,,,> 100,> 100,,,,,
COc1cc2c(c(OC)c1OC)-c1c(cc3c(c1OC)OCO3)CC(C)C(C)(O)C2OC(=O)c1ccccc1 (configuration not stated),,,,,,,> 100,,,,,,,
CCN(CC)C(=O)COc1cc2c(O)c3c(O)c(C)c4c(c13)C(=O)C(C)(OC=CC(OC)C(C)C(OC(C)=O)C(C)C(O)C(C)C(O)C(C)C=CC=C(C)C(=O)N2)O4 (configuration not stated),,,,,,,> 100,,,,,,,
Nc1ncnc2c1nnn2C1C=C(CO)C(O)C1O (configuration not stated),> 92.6,> 100,> 100,> 100,> 100,,,> 100,> 100,,,,,
O=C(COc1ccc(Cl)cc1)N1CCN(C(=O)COc2ccc(Cl)cc2)c2ccccc21,> 100,> 100,> 100,> 100,> 100,,,> 100,> 100,,,,,
